Residues, ends and D or L forms follow the SMILES beside them. *: point of attachment. pNA = O=[N+]([O-])c1ccc(N*)cc1
Columns and labels:
[1] = system: soluble serum DPPIV/CD26, 175 kDa form, purified from normal human serum; experiment: DPPIV activity assay (hydrolysis of Gly-Pro-pNA; Michaelis-Menten kinetics and inhibition); assay type: biochemical
Procedure: (§1) The DPPIV enzyme activities of the rsCD26 and serum DPPIV were analyzed by Michaelis-Menten kinetics by assessing kinetics of hydrolysis of substrate at different concentrations. […] To further exclude the possibility that we had purified irrelevant aminopeptidases which, working in concert or by sequential hydrolysis, could release the pNA chromophore from substrate, we tested a number of substrates which could be hydrolyzed by non-DPPIV aminopeptidases. One candidate for sequential hydrolysis is aminopeptidase M (3.4.11.2), but no hydrolysis of Ala-pNA, Arg-pNA or Leu-pNA was observed and activity by aminopolypeptidase (3.4.11.14) may be similarly excluded. The substrate succinyl-Gly-Pro-pNA was also not hydrolyzed. The only substrate apart from the dipeptide chromatogen Gly-Pro-pNA which could be hydrolyzed was Val-Ala-pNA, which was cleaved by both the serum DPPIV and rsCD26 (relative to rate of hydrolysis of Gly-Pro-pNA, hydrolysis of Val-Ala-pNA was 0.098 and 0.079, for rsCD26 and serum DPPIV, respectively). Although DPPIV primarily hydrolyses dipeptides with a proline in the penultimate position, it is well documented that alanine in the penultimate position may also render a dipeptide sequence susceptible to cleavage by DPPIV (8). […]
The primary substrate used for determining DPPIV activity in all assays was Gly-Pro-p-nitroanilide (Gly-Pro-pNA; Sigma), which is hydrolyzed by DPPIV to release pNA absorbing strongly at 405 nm. […] Inhibition of the hydrolysis of Gly-Pro-pNA was determined in the presence of the specific DPPIV inhibitor Diprotin A (Bachem, King of Prussia, Pa.). […] The pH optimum was determined substituting phosphate buffer (100 mM, pH4.5-pH9) in place of standard incubation buffer.
Serum DPPIV was prepared by isolating from 100 ml of pooled normal human male AB serum the fraction of protein precipitated by 50-70% saturated ammonium sulfate. […] The DPPIV activity was eluted by a 0-0.5M NaCl gradient in equilibration buffer and all DPPIV activity was found in the 10 mM-50 mM NaCl eluate (determined by conductance). […]

[2] = molecular target: T1, recombinant soluble CD26 (rsCD26), full extracellular domain of human T cell membrane CD26/DPPIV, 105 kDa form, from transfected CHO cells (Homo sapiens, UniProt P27487); experiment: as above; assay type: biochemical
T1 construct: The full extracellular domain of T cell membrane-expressed CD26 (rsCD26); made in house; host or cells: transfected CHO cells
T1 sequence (P27487 29-766 limits assumed): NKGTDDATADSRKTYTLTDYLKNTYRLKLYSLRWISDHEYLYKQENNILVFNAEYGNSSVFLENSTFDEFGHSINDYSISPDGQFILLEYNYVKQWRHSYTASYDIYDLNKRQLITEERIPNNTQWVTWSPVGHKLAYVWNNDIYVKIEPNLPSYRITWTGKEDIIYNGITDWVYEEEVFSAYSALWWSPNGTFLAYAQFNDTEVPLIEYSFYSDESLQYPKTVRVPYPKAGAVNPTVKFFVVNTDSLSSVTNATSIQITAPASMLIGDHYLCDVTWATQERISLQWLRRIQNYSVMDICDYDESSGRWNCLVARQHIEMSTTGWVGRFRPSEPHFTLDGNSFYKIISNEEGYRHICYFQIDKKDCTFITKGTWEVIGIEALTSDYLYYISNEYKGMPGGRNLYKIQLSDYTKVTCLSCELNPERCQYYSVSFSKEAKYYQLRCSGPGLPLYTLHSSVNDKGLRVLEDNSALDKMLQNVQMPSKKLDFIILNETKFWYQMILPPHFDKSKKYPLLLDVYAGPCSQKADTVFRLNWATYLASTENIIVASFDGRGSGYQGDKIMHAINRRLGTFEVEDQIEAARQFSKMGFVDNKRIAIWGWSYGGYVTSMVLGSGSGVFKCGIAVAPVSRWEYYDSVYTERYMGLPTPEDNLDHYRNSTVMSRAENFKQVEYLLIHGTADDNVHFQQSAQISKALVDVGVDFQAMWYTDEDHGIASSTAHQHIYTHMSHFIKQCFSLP
Procedure: as §1, with “respectively).” for “respectively). Although DPPIV primarily hydrolyses dipeptides with a proline in the penultimate position, it is well documented that alanine in the penultimate position may also render a dipeptide sequence susceptible to cleavage by DPPIV (8).”
The primary substrate used for determining DPPIV activity in all assays was Gly-Pro-p-nitroanilide (Gly-Pro-pNA; Sigma), which is hydrolyzed by DPPIV to release pNA absorbing strongly at 405 nm. […] Inhibition of the hydrolysis of Gly-Pro-pNA was determined in the presence of the specific DPPIV inhibitor Diprotin A (Bachem, King of Prussia, Pa.). […]

[3] = Lineweaver-Burke transformation
[4] = unit defined at pH7.6 and 20° C.

Compound `CC[C@H](C)[C@H](N)C(=O)N1CCC[C@H]1C(=O)N[C@H](C(=O)O)[C@@H](C)CC` [Diprotin A] has an IC50 ([1]; substrate Gly-Pro-pNA) of 250 µM.

For `NCC(=O)N1CCC[C@H]1C(=O)Nc1ccc([N+](=O)[O-])cc1` [Gly-Pro-pNA, Gly-Pro-p-nitroanilide] (H-Gly-Pro-pNA), the Km [2, 3] was 280 µM, the “Vmax, using Gly-Pro-pNA as substrate” value [2, 4] was 1.52 U/nmol rsCD26 and the Km [1, 3] was 280 µM. For the same compound, the “Vmax, using Gly-Pro-pNA as substrate” value [1, 4] was 0.65 U/nmol serum DPPIV.
